Assay results taken from ChEMBL document CHEMBL5260827, “Fructose-1,6-bisphosphatase inhibitors: A new valid approach for management of type 2 diabetes mellitus” (Eur J Med Chem, 2017).
pEC50, pIC50: −log10 of the molar value.

Tests used:
[1] = target: T1, Fructose-1,6-bisphosphatase 1 (Homo sapiens, UniProt P09467); assay: Inhibition of human liver FBPase by spectrophotometric method; format: tissue-based
T1 sequence (P09467 whole entry): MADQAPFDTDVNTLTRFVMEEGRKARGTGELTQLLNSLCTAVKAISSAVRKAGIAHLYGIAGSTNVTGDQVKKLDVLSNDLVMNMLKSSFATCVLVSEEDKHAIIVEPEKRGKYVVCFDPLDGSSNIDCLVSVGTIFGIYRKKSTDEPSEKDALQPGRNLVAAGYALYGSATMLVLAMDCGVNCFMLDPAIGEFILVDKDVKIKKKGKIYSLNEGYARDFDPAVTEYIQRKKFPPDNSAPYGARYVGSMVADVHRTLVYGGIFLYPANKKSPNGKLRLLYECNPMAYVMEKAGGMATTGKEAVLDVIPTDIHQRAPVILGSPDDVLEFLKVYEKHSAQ

[2] = Inhibition of Cynomolgus monkey FBPase; design: species or system Macaca fascicularis
[3] = Tmax in Cynomolgus monkey at 10 mg/kg, po upto 24 hrs by LC/MS/MS analysis; format: ADME, organism-based, Macaca fascicularis; conditions: in vivo
[4] = Inhibition of rat FBPase
[5] = Cmax in Cynomolgus monkey at 10 mg/kg, po measured after 3 hrs by LC/MS/MS analysis; format: ADME, organism-based, Macaca fascicularis; design: dose 10 mg/kg, time 3 hrs, route po; conditions: in vivo
Hepatocyte = assay: Inhibition of glucose production in human hepatocyte assessed as reduction in […]; format: functional, cell-based
[6] = Half life in Cynomolgus monkey at 10 mg/kg, po; format: ADME, organism-based, Macaca fascicularis; conditions: in vivo
Mus musculus = assay: Hypoglycemic activity in db/db mouse assessed as reduction in blood glucose level at 300 mg/kg, po administered for 5 days; format: functional; conditions: time 5 day
Rattus norvegicus = assay: Hypoglycemic activity in ZDF rats assessed as reduction in blood glucose level at 10 to 300 mg/kg, po; format: functional; conditions: dose 10-300 mg/kg
[7] = Oral bioavailability in cynomolgus monkey at 10 mg/kg; format: ADME, organism-based, Macaca fascicularis; conditions: in vivo
[8] = target: T1, Fructose-1,6-bisphosphatase 1; assay: Inhibition of human liver FBPase
[9] = target: T1, Fructose-1,6-bisphosphatase 1; assay: biochemical
[10] = target: T1, Fructose-1,6-bisphosphatase 1; assay: Inhibition of human liver FBPase expressed in Escherichia coli BL21 (DE3) measured after 48 hrs by spectrophotometry analysis

Description for Oryctolagus cuniculus: Binding affinity to recombinant rabbit FBPase expressed in Escherichia coli assessed as maximal activity

## CC1SC(=O)NN=C1c1ccc2[nH]c(-c3ccc(-n4ccnc4)cc3)nc2c1 (stereo unspecified)
[1]
  pIC50: 4.44

## CC(C)Cn1c(C2CCC(P(=O)(O)O)O2)nc2c(N)c(F)cc(CCBr)c21 (stereo unspecified)
[1]
  pIC50: 7.47

## CCCC(C)C(=O)c1sc(N)nc1-c1ccc(P(=O)(O)O)o1 (stereo unspecified)
[1]
  pIC50: 7.96

## O=P(O)(O)OC[C@H]1O[C@H](COP(=O)(O)O)[C@@H](O)[C@@H]1O
[1]
  pIC50: 5.70

## CSc1nc(N)c2nc(-c3ccc(P(=O)(O)O)o3)n(CC(C)(C)C)c2n1
[1]
  pIC50: 6.15

## CCOc1cc2ncnc(Nc3cccc(Cl)c3)c2cc1OCC
Oryctolagus cuniculus
  Km: 2.7 µM

## CC1=CC=CN2C(CC(C)C)C(c3ccc(P(=O)(O)O)o3)=NC12 (stereo unspecified)
[1]
  pIC50: 5.80

## CC(C)(C)C(=O)c1sc(N)nc1-c1ccc(P(=O)(O)O)o1
[2]
  pIC50: 6.92
[3]
  Tmax: 3.3 h
[4]
  pIC50: 6.72
[5]
  Cmax: 2100 ng/mL
Hepatocyte
  pEC50: 6.85
[6]
  half-life: 7.6 h
Mus musculus
  Activity: 350 mg/dL
Rattus norvegicus
  Activity: 200 mg/dL
[7]
  bioavailability: 52%

## COc1ccc(CC(=O)Nc2cccc(-c3nnc(-c4ccc(C)cc4)o3)c2)cc1OC
[8]
  pIC50: 5.35

## CSc1nc(N)c2nc(-c3ccc(P(=O)(O)O)o3)n(CC(C)C)c2n1
[9]
  pIC50: 3.15

## COc1ccc(CC(=O)Nc2cccc(-c3nnc(-c4cccc(Cl)c4)o3)c2)cc1OC
[8]
  pIC50: 4.81

## COC(=O)c1ccc(S(=O)(=O)n2cccc2)cc1
[10]
  pIC50: 7.49

## N#Cc1ccc(C(C(=O)NCCc2ccc(O)cc2)N2C(=O)C3Cc4ccc(O)cc4CN3C(=O)C2CC2CCCCC2)cc1 (stereo unspecified)
[1]
  pIC50: 6.43
